Data as given in ChEMBL document CHEMBL5236634, “Membrane-Targeting Neolignan-Antimicrobial Peptide Mimic Conjugates to Combat Methicillin-Resistant Staphylococcus aureus (MRSA) Infections” (J Med Chem, 2022).
Converted amounts (≈) assume the structure as drawn. The source made the active and inactive calls. The rule behind the calls is not given here.

Tests used:
Cell membrane [1] = assay: Disruption of membrane integrity in methicillin-resistant Staphylococcus aureus 15 assessed as increase in fluorescence intensity at 32 ug/ml measured immediately by Sytox green based fluorescence method; type: subcellular; settings: dose 32.0 µg/ml
Cell membrane [2] = assay: Induction of membrane depolarization in methicillin-resistant Staphylococcus aureus 15 assessed as increase in fluorescence intensity at 32 ug/ml by DiSC3-5 dye based fluorescence method; type: subcellular; settings: dose 32.0 µg/ml
Micrococcus luteus = assay: Antibacterial activity against Micrococcus luteus assessed as inhibition of bacterial growth incubated for 16 to 20 hrs by CLSI based microdilution method; type: functional; settings: time 16-20 hrs
Enterococcus faecalis = assay: Antibacterial activity against Enterococcus faecalis ATCC 29212 assessed as inhibition of bacterial growth incubated for 16 to 20 hrs by CLSI based microdilution method; type: functional; settings: time 16-20 hrs
Staphylococcus aureus [3] = assay: Inhibition of biofilm formation in methicillin-resistant Staphylococcus aureus 15 at 64 ug/ml incubated for 24 hrs by crystalline violet staining based analysis; type: functional; settings: dose 64.0 µg/ml
Staphylococcus aureus [4] = assay: Bactericidal activity against methicillin-resistant Staphylococcus aureus 15 at 4 to 8 times MIC measured at 24 hrs by time kill assay; type: functional, organism-based
Staphylococcus aureus [5] = assay: Inhibition of biofilm formation in methicillin-resistant Staphylococcus aureus 15 assessed as destruction of formed biofilm at 128 ug/ml incubated for 24 hrs by crystal violet staining based analysis relative to control; type: functional
Staphylococcus aureus [6] = assay: Inhibition of biofilm formation in Staphylococcus aureus ATCC 29213 at 64 ug/ml incubated for 24 hrs by crystalline violet staining based analysis; type: functional; settings: dose 64.0 µg/ml
Staphylococcus aureus [7] = assay: Induction of drug resistance in Staphylococcus aureus ATCC 29213 assessed as increase in MIC at 0.5 times MIC measured after 2 days by CLSI based microdilution method; type: functional, organism-based; settings: time 2.0 day
[8] = Hemolytic activity in sheep RBC incubated for 1 hr by absorbance based analysis; type: toxicity, cell-based, Ovis aries, Erythrocyte; settings: sheep red blood cells
Salmonella enterica [9] = assay: Antibacterial activity against Salmonella enterica 8389 assessed as inhibition of bacterial growth incubated for 16 to 20 hrs by CLSI based microdilution method; type: functional; settings: time 16-20 hrs
[10] = Selectivity index, ratio of HC50 for hemolytic activity in sheep RBC to MIC for antibacterial activity against Staphylococcus aureus ATCC 29213; type: toxicity; settings: sheep red blood cells
Staphylococcus aureus [11] = assay: Antibacterial activity against Staphylococcus aureus ATCC 29213 assessed as inhibition of bacterial growth incubated for 16 to 20 hrs by CLSI based microdilution method; type: functional; settings: time 16-20 hrs
Escherichia coli = assay: Antibacterial activity against Escherichia coli ATCC 25922 assessed as inhibition of bacterial growth incubated for 16 to 20 hrs by CLSI based microdilution method; type: functional; settings: time 16-20 hrs
Salmonella enterica [12] = assay: Antibacterial activity against Salmonella enterica H9812 assessed as inhibition of bacterial growth incubated for 16 to 20 hrs by CLSI based microdilution method; type: functional; settings: time 16-20 hrs

Row | Structure (SMILES) | Activity (Cell membrane [1]) | Activity (Cell membrane [2]) | MIC (Micrococcus luteus) [µg/mL] | MIC (Enterococcus faecalis) [µg/mL] | inhibition (Staphylococcus aureus [3]) | Activity (Staphylococcus aureus [4]) | inhibition at 128 µg/mL (Staphylococcus aureus [5]) [%] | inhibition (Staphylococcus aureus [6]) | Activity (Staphylococcus aureus [7]) | HC50 at 1 h [8] [µg/mL] | MIC (Salmonella enterica [9]) [µg/mL] | selectivity ratio [10] | MIC (Staphylococcus aureus [11]) [µg/mL] | MIC (Escherichia coli) [µg/mL] | MIC (Salmonella enterica [12]) [µg/mL]
1 | CC[C@H](C)[C@H](NC(=O)CN)C(=O)NCC(=O)N[C@@H](C)C(=O)N[C@H](C(=O)N[C@@H](CC(C)C)C(=O)N[C@@H](CCCCN)C(=O)N[C@H](C(=O)N[C@@H](CC(C)C)C(=O)N[C@H](C(=O)N[C@H](C(=O)NCC(=O)N[C@@H](CC(C)C)C(=O)N1CCC[C@H]1C(=O)N[C@@H](C)C(=O)N[C@@H](CC(C)C)C(=O)N[C@H](C(=O)N[C@@H](CO)C(=O)N[C@@H](Cc1c[nH]c2ccccc12)C(=O)N[C@H](C(=O)N[C@@H](CCCCN)C(=O)N[C@@H](CCCNC(=N)N)C(=O)N[C@@H](CCCCN)C(=O)N[C@@H](CCCNC(=N)N)C(=O)N[C@@H](CCC(N)=O)C(=O)N[C@@H](CCC(N)=O)C(N)=O)[C@@H](C)CC)[C@@H](C)CC)[C@@H](C)O)[C@@H](C)O)C(C)C)C(C)C | Active | Active |  |  |  |  |  |  |  |  |  |  |  |  | 
2 | CN[C@H](CC(C)C)C(=O)N[C@H]1C(=O)N[C@@H](CC(N)=O)C(=O)N[C@H]2C(=O)N[C@H]3C(=O)N[C@H](C(=O)N[C@H](C(=O)O)c4cc(O)cc(O)c4-c4cc3ccc4O)[C@H](O)c3ccc(c(Cl)c3)Oc3cc2cc(c3O[C@@H]2O[C@H](CO)[C@@H](O)[C@H](O)[C@H]2O[C@H]2C[C@](C)(N)[C@H](O)[C@H](C)O2)Oc2ccc(cc2Cl)[C@H]1O [VANCOMYCIN] |  |  | 2 (≈ 1.38 µM) | 1 (≈ 0.69 µM) | inactive | inactive | 60 | inactive |  |  |  |  |  |  | 
3 | CCn1cc(C(=O)O)c(=O)c2cc(F)c(N3CCNCC3)cc21 |  |  |  |  |  |  |  |  | Active |  |  |  |  |  | 
4 | C=CCc1cccc(Oc2ccc(C(=O)CC)cc2)c1OCC[N+](C)(C)CC(=O)N1CCCC1.[Br-] |  |  | 32 | 64 |  |  |  |  |  | 543 | > 128 | 17 | 32 | 128 | 64
5 | C=CCc1cccc(Oc2ccc(C(=O)CC)cc2)c1OCCCC[N+](C)(C)CC(=O)N1CCCC1.[Br-] |  |  | 32 | 16 |  |  |  |  |  | 579 | 128 | 36.2 | 16 | 64 | 128
6 | C=CCc1cccc(Oc2ccc(C(=O)CC)cc2)c1OCCC[N+](C)(C)CC(=O)N1CCOCC1.[Br-] |  |  | 64 | 64 |  |  |  |  |  | 674 | > 128 | 21.1 | 32 | > 128 | 64
